How the values were obtained:
[1] = system: cows (Holstein Friesians); assay: Treatment with DPD analogs (organosulfur compounds) and milk yield (Example 8); assay type: in vivo, cow; conditions: individual cows; dose per compound as listed in E284
[2] = system: cows (Holstein Friesians); assay: Dose-response DPD treatment and milk yield (Example 2); assay type: in vivo, cow; conditions: for Milk yield Last milking: before administration; for % reduction after 24 h / % reduction after 48 h / % reduction after 72 h / % reduction after 96 h: vs milk yield before treatment
Description: Study design. Twenty-seven cows (Holstein Friesians) from 2 farms were used. […] The cows were milked twice a day. The cows were housed in free stables.
[…] For each dosage 3 cows were used.

SMILES: CCCSSCCC [DPD, di-n-propyl disulfide]
- Milk yield (kg) After 24 h [1]: 8.5 kg
- Milk yield (kg) After 48 h [1]: 7.4 kg
- Milk yield (kg) After 72 h [1]: 15.6 kg
- Milk yield (kg) After 96 h [1]: 17.7 kg
- Average reduction 24 and 48 h (%) ([2]; 10 ml DPD): −3.3%
- Milk yield After 24 h ([2]; 10 ml DPD): 14.45 kg
- Milk yield After 48 h ([2]; 10 ml DPD): 13.98 kg
- Milk yield After 72 h ([2]; 10 ml DPD): 12.99 kg
- Milk yield After 96 h ([2]; 10 ml DPD): 13.78 kg
- Milk yield Last milking ([2]; 10 ml DPD): 13.76 kg
- % reduction after 24 h ([2]; 10 ml DPD): −5%
- % reduction after 48 h ([2]; 10 ml DPD): −1.6%
- % reduction after 72 h ([2]; 10 ml DPD): 5.6%
- % reduction after 96 h ([2]; 10 ml DPD): 0%
- Average reduction 24 and 48 h (%) ([2]; 20 ml DPD): 23%
- Milk yield After 24 h ([2]; 20 ml DPD): 9.42 kg
- Milk yield After 48 h ([2]; 20 ml DPD): 10.2 kg
- Milk yield After 72 h ([2]; 20 ml DPD): 12.93 kg
- Milk yield After 96 h ([2]; 20 ml DPD): 12.68 kg
- effect on milk yield compared to the milk yield before treatment ([2]; 20 ml DPD): clear lowering on milk yield
- Milk yield Last milking ([2]; 20 ml DPD): 12.72 kg
- % reduction after 24 h ([2]; 20 ml DPD): 26%
- % reduction after 48 h ([2]; 20 ml DPD): 20%
- % reduction after 72 h ([2]; 20 ml DPD): −1.7%
- % reduction after 96 h ([2]; 20 ml DPD): 0%
- Average reduction 24 and 48 h (%) ([2]; 50 ml DPD): 33%
- Milk yield After 24 h ([2]; 50 ml DPD): 10.03 kg
- Milk yield After 48 h ([2]; 50 ml DPD): 8.38 kg
- Milk yield After 72 h ([2]; 50 ml DPD): 14.16 kg
- Milk yield After 96 h ([2]; 50 ml DPD): 13.68 kg
- Milk yield Last milking ([2]; 50 ml DPD): 13.73 kg
- % reduction after 24 h ([2]; 50 ml DPD): 27%
- % reduction after 48 h ([2]; 50 ml DPD): 39%
- % reduction after 72 h ([2]; 50 ml DPD): −3.1%
- % reduction after 96 h ([2]; 50 ml DPD): 0%
- Average reduction 24 and 48 h (%) ([2]; 80 ml DPD): 55%
- Milk yield After 24 h ([2]; 80 ml DPD): 8.46 kg
- Milk yield After 48 h ([2]; 80 ml DPD): 7.40 kg
- Milk yield After 72 h ([2]; 80 ml DPD): 15.63 kg
- Milk yield After 96 h ([2]; 80 ml DPD): 17.65 kg
- Milk yield Last milking ([2]; 80 ml DPD): 17.63 kg
- % reduction after 24 h ([2]; 80 ml DPD): 52%
- % reduction after 48 h ([2]; 80 ml DPD): 58%
- % reduction after 72 h ([2]; 80 ml DPD): 11.3%
- % reduction after 96 h ([2]; 80 ml DPD): 0%
- behavior of the cows ([2]; 80 ml or more DPD): became restless and showed a more active behavior
- Average reduction 24 and 48 h (%) ([2]; 100 ml DPD): 51%
- Milk yield After 24 h ([2]; 100 ml DPD): 8.12 kg
- Milk yield After 48 h ([2]; 100 ml DPD): 8.44 kg
- Milk yield After 72 h ([2]; 100 ml DPD): 13.33 kg
- Milk yield After 96 h ([2]; 100 ml DPD): 16.55 kg
- Milk yield Last milking ([2]; 100 ml DPD): 16.23 kg
- % reduction after 24 h ([2]; 100 ml DPD): 50%
- % reduction after 48 h ([2]; 100 ml DPD): 52%
- % reduction after 72 h ([2]; 100 ml DPD): 17.9%
- % reduction after 96 h ([2]; 100 ml DPD): −0.2%
- Average reduction 24 and 48 h (%) ([2]; 150 ml DPD): 62%
- Milk yield After 24 h ([2]; 150 ml DPD): 8.72 kg
- Milk yield After 48 h ([2]; 150 ml DPD): 5.17 kg
- Milk yield After 72 h ([2]; 150 ml DPD): 11.24 kg
- Milk yield After 96 h ([2]; 150 ml DPD): 14.63 kg
- Milk yield Last milking ([2]; 150 ml DPD): 14.78 kg
- % reduction after 24 h ([2]; 150 ml DPD): 59%
- % reduction after 48 h ([2]; 150 ml DPD): 65%
- % reduction after 72 h ([2]; 150 ml DPD): 24%
- % reduction after 96 h ([2]; 150 ml DPD): 0%
- Average reduction 24 and 48 h (%) ([2]; 175 ml DPD): 55%
- Milk yield After 24 h ([2]; 175 ml DPD): 8.44 kg
- Milk yield After 48 h ([2]; 175 ml DPD): 8.75 kg
- Milk yield After 72 h ([2]; 175 ml DPD): 13.24 kg
- Milk yield Last milking ([2]; 175 ml DPD): 15.63 kg
- % reduction after 24 h ([2]; 175 ml DPD): 54%
- % reduction after 48 h ([2]; 175 ml DPD): 56%
- % reduction after 72 h ([2]; 175 ml DPD): 15.3%
- Average reduction 24 and 48 h (%) ([2]; 200 ml DPD): 52%
- Milk yield After 24 h ([2]; 200 ml DPD): 11.29 kg
- Milk yield After 48 h ([2]; 200 ml DPD): 10.87 kg
- Milk yield After 72 h ([2]; 200 ml DPD): 13.56 kg
- Milk yield Last milking ([2]; 200 ml DPD): 21.31 kg
- % reduction after 24 h ([2]; 200 ml DPD): 53%
- % reduction after 48 h ([2]; 200 ml DPD): 51%
- % reduction after 72 h ([2]; 200 ml DPD): 36.4%
- behavior and eating behavior of the cows ([2]; after DPD administration): relaxed and quiet behavior and no change in eating behavior was observed
- adverse effects ([2]; dose of 200 grams administered to a cow): without demonstrating any adverse effects
- effect on milk yield ([2]; more than 80 ml DPD): no further decrease of milk yield was observed
- behavior of the cows ([2]; more than 100 ml DPD): looked like to become more active
- dosage at which the milk yield decrease became visible ([2]; single oral dose): ≥ 20 mL
- dosage giving maximum response (milk yield decrease) ([2]; single oral dose): ≥ 80 mL
- duration of the effect of DPD on milk yield ([2]; single oral dose): disappears on the 3rd and 4th day after treatment
- behavior of the cows ([2]; until 80 ml DPD): no undesired behavior of the cows was observed

— US20260083687A1, “COMPOUNDS FOR REDUCING LACTATION AND IMPROVING HEALTH” (AHV International B.V., priority 2022, published 2026)
